Laboratory results published in patent publication US6706740B2, “Fungicidal heterocyclic aromatic amides and their compositions, methods of use and preparation” (Dow AgroSciences LLC, priority 1999, dated 2004).

Tested on: Magnaporthe grisea (Pyricularia oryzae—PYRIOR)
Assay: microbe, parasite or virus in culture
Assay type: cell-based
Details: Pyricularia oryzae, read-out: PYRIOR in vitro Growth Inhibition

Structure (SMILES)	inhibition at 25 ppm
CC(C)C(=O)O[C@H]1[C@H](C)OC(=O)[C@@H](NC(=O)c2nc(Cl)c(Cl)nc2O)COC(=O)[C@@H]1Cc1ccccc1 [Compound 538]	< 80%
COc1ccccc1CNC(=O)c1ncccc1O [Compound 224]	> 80%
COc1ccnc(C(=O)NC2COC(=O)C[C@H](NC(=O)OCc3ccccc3)C(=O)OC2)c1O (stereo partly drawn) [Compound 376]	< 80%

Tested on: Rhizoctonia solani (RHIZSO)
Assay: microbe, parasite or virus in culture
Assay type: cell-based
Details: Rhizoctonia solani, read-out: RHIZSO in vitro Growth Inhibition

Structure (SMILES)	inhibition at 25 ppm
CC(C)C(=O)O[C@H]1[C@H](C)OC(=O)[C@@H](NC(=O)c2nc(Cl)c(Cl)nc2O)COC(=O)[C@@H]1Cc1ccccc1 [Compound 538]	< 80%
COc1ccccc1CNC(=O)c1ncccc1O [Compound 224]	< 80%
COc1ccnc(C(=O)NC2COC(=O)C[C@H](NC(=O)OCc3ccccc3)C(=O)OC2)c1O (stereo partly drawn) [Compound 376]	< 80%

Tested on: Mycosphaerella graminicola (Septoria tritici—SEPTTR)
Assay: In vitro fungal growth inhibition, Mycosphaerella graminicola (SEPTTR)
Assay type: cell-based
Details: Zymoseptoria tritici; 25 ppm in growth medium; read-out: SEPTTR in vitro Growth Inhibition

Structure (SMILES)	inhibition at 25 ppm
COc1ccccc1CNC(=O)c1ncccc1O [Compound 224]	< 80%
COc1ccnc(C(=O)NC2COC(=O)C[C@H](NC(=O)OCc3ccccc3)C(=O)OC2)c1O (stereo partly drawn) [Compound 376]	< 80%

Same assay, conditions: Zymoseptoria tritici; 25 ppm in the growth medium; read-out: SEPTTR in vitro Growth Inhibition

Structure (SMILES)	inhibition at 25 ppm
CC(C)C(=O)O[C@H]1[C@H](C)OC(=O)[C@@H](NC(=O)c2nc(Cl)c(Cl)nc2O)COC(=O)[C@@H]1Cc1ccccc1 [Compound 538]	< 80%

Tested on: Stagonospora nodorum (Leptosphaeria nodorum—LEPTNO)
Assay: In vitro fungal growth inhibition, Stagonospora nodorum (LEPTNO)
Assay type: cell-based
Details: Leptosphaeria; 25 ppm in growth medium; read-out: LEPTNO in vitro Growth Inhibition

Structure (SMILES)	inhibition at 25 ppm
COc1ccccc1CNC(=O)c1ncccc1O [Compound 224]	< 80%
COc1ccnc(C(=O)NC2COC(=O)C[C@H](NC(=O)OCc3ccccc3)C(=O)OC2)c1O (stereo partly drawn) [Compound 376]	< 80%

Same assay, conditions: Leptosphaeria; 25 ppm in the growth medium; read-out: LEPTNO in vitro Growth Inhibition

Structure (SMILES)	inhibition at 25 ppm
CC(C)C(=O)O[C@H]1[C@H](C)OC(=O)[C@@H](NC(=O)c2nc(Cl)c(Cl)nc2O)COC(=O)[C@@H]1Cc1ccccc1 [Compound 538]	< 80%

Tested on: Ustilago maydis (USTIMA)
Assay: microbe, parasite or virus in culture
Assay type: cell-based
Details: Mycosarcoma maydis, read-out: USTIMA in vitro Growth Inhibition

Structure (SMILES)	inhibition at 25 ppm
CC(C)C(=O)O[C@H]1[C@H](C)OC(=O)[C@@H](NC(=O)c2nc(Cl)c(Cl)nc2O)COC(=O)[C@@H]1Cc1ccccc1 [Compound 538]	< 80%
COc1ccccc1CNC(=O)c1ncccc1O [Compound 224]	< 80%
COc1ccnc(C(=O)NC2COC(=O)C[C@H](NC(=O)OCc3ccccc3)C(=O)OC2)c1O (stereo partly drawn) [Compound 376]	< 80%

Tested on: Phytophthora infestans (PHYTIN)
Assay: microbe, parasite or virus in culture
Assay type: cell-based
Details: Phytophthora infestans, read-out: PHYTIN in vitro Growth Inhibition

Structure (SMILES)	inhibition at 25 ppm
CC(C)C(=O)O[C@H]1[C@H](C)OC(=O)[C@@H](NC(=O)c2nc(Cl)c(Cl)nc2O)COC(=O)[C@@H]1Cc1ccccc1 [Compound 538]	< 80%
COc1ccccc1CNC(=O)c1ncccc1O [Compound 224]	< 80%
COc1ccnc(C(=O)NC2COC(=O)C[C@H](NC(=O)OCc3ccccc3)C(=O)OC2)c1O (stereo partly drawn) [Compound 376]	< 80%

Tested on: Phytophthora infestans—PHYTIN
Assay: whole plant or invertebrate
Assay type: in vivo
Details: Phytophthora, in Solanum lycopersicum, 24 h, read-out: PHYTIN in vivo 1 Day Protectant

Structure (SMILES)	pest or weed control at 100 ppm
CC(C)C(=O)O[C@H]1[C@H](C)OC(=O)[C@@H](NC(=O)c2nc(Cl)c(Cl)nc2O)COC(=O)[C@@H]1Cc1ccccc1 [Compound 538]	< 25%
COc1ccccc1CNC(=O)c1ncccc1O [Compound 224]	< 25%
COc1ccnc(C(=O)NC2COC(=O)C[C@H](NC(=O)OCc3ccccc3)C(=O)OC2)c1O (stereo partly drawn) [Compound 376]	< 25%

Tested on: Puccinia recondita—PUCCRT
Assay: Brown Rust of Wheat, in vivo whole plant, 24 Hour Protectant
Details: Puccinia; 100 ppm spray, 24 hour protectant, wheat; control of fungal infection vs untreated plants; read-out: PUCCRT in vivo 1 Day Protectant

Structure (SMILES)	pest or weed control at 100 ppm
COc1ccccc1CNC(=O)c1ncccc1O [Compound 224]	< 25%

Same assay, conditions: Puccinia; 100 ppm spray, wheat, 24 hour protectant; control of fungal infection vs untreated plants; read-out: PUCCRT in vivo 1 Day Protectant

Structure (SMILES)	pest or weed control at 100 ppm
COc1ccnc(C(=O)NC2COC(=O)C[C@H](NC(=O)OCc3ccccc3)C(=O)OC2)c1O (stereo partly drawn) [Compound 376]	< 25%

Same assay, conditions: Puccinia; wheat plants sprayed at 100 ppm, inoculated after 24 hours; control of fungal infection vs untreated plants; read-out: PUCCRT in vivo 1 Day Protectant

Structure (SMILES)	pest or weed control at 100 ppm
CC(C)C(=O)O[C@H]1[C@H](C)OC(=O)[C@@H](NC(=O)c2nc(Cl)c(Cl)nc2O)COC(=O)[C@@H]1Cc1ccccc1 [Compound 538]	25 to 74%

Tested on: Erysiphe graminis—ERYSGT
Assay: Powdery Mildew of Wheat, in vivo whole plant, 24 Hour Protectant
Details: Erysiphe; 100 ppm spray, 24 hour protectant, wheat; control of fungal infection vs untreated plants; read-out: ERYSGT in vivo 1 Day Protectant

Structure (SMILES)	pest or weed control at 100 ppm
COc1ccccc1CNC(=O)c1ncccc1O [Compound 224]	< 25%

Same assay, conditions: Erysiphe; 100 ppm spray, wheat, 24 hour protectant; control of fungal infection vs untreated plants; read-out: ERYSGT in vivo 1 Day Protectant

Structure (SMILES)	pest or weed control at 100 ppm
COc1ccnc(C(=O)NC2COC(=O)C[C@H](NC(=O)OCc3ccccc3)C(=O)OC2)c1O (stereo partly drawn) [Compound 376]	25 to 74%

Same assay, conditions: Erysiphe; wheat plants sprayed at 100 ppm, inoculated after 24 hours; control of fungal infection vs untreated plants; read-out: ERYSGT in vivo 1 Day Protectant

Structure (SMILES)	pest or weed control at 100 ppm
CC(C)C(=O)O[C@H]1[C@H](C)OC(=O)[C@@H](NC(=O)c2nc(Cl)c(Cl)nc2O)COC(=O)[C@@H]1Cc1ccccc1 [Compound 538]	< 25%

Tested on: Septoria tritici—SEPTTR
Assay: Leaf Blotch of Wheat, in vivo whole plant, 24 Hour Protectant
Details: Zymoseptoria tritici, 24 h, 100 ppm spray, 24 hour protectant, wheat; control of fungal infection vs untreated plants; read-out: SEPTTR in vivo 1 Day Protectant

Structure (SMILES)	pest or weed control at 100 ppm
COc1ccccc1CNC(=O)c1ncccc1O [Compound 224]	< 25%

Same assay, conditions: Zymoseptoria tritici, 24 h, 100 ppm spray, wheat, 24 hour protectant; control of fungal infection vs untreated plants; read-out: SEPTTR in vivo 1 Day Protectant

Structure (SMILES)	pest or weed control at 100 ppm
COc1ccnc(C(=O)NC2COC(=O)C[C@H](NC(=O)OCc3ccccc3)C(=O)OC2)c1O (stereo partly drawn) [Compound 376]	25 to 74%

Same assay, conditions: Zymoseptoria tritici, 24 h, wheat plants sprayed at 100 ppm, inoculated after 24 hours; control of fungal infection vs untreated plants; read-out: SEPTTR in vivo 1 Day Protectant

Structure (SMILES)	pest or weed control at 100 ppm
CC(C)C(=O)O[C@H]1[C@H](C)OC(=O)[C@@H](NC(=O)c2nc(Cl)c(Cl)nc2O)COC(=O)[C@@H]1Cc1ccccc1 [Compound 538]	25 to 74%

Tested on: Leptosphaeria nodorum—LEPTNO
Assay: Glume Blotch of Wheat, in vivo whole plant, 24 Hour Protectant
Details: Leptosphaeria; 100 ppm spray, 24 hour protectant, wheat; control of fungal infection vs untreated plants; read-out: LEPTNO in vivo 1 Day Protectant

Structure (SMILES)	pest or weed control at 100 ppm
COc1ccccc1CNC(=O)c1ncccc1O [Compound 224]	< 25%

Same assay, conditions: Leptosphaeria; 100 ppm spray, wheat, 24 hour protectant; control of fungal infection vs untreated plants; read-out: LEPTNO in vivo 1 Day Protectant

Structure (SMILES)	pest or weed control at 100 ppm
COc1ccnc(C(=O)NC2COC(=O)C[C@H](NC(=O)OCc3ccccc3)C(=O)OC2)c1O (stereo partly drawn) [Compound 376]	25 to 74%

Same assay, conditions: Leptosphaeria; wheat plants sprayed at 100 ppm, inoculated after 24 hours; control of fungal infection vs untreated plants; read-out: LEPTNO in vivo 1 Day Protectant

Structure (SMILES)	pest or weed control at 100 ppm
CC(C)C(=O)O[C@H]1[C@H](C)OC(=O)[C@@H](NC(=O)c2nc(Cl)c(Cl)nc2O)COC(=O)[C@@H]1Cc1ccccc1 [Compound 538]	25 to 74%

Tested on: not given
Assay: not given
Details: not given

Structure (SMILES)	melting point
CC(C)C(=O)O[C@H]1[C@H](C)OC(=O)[C@@H](NC(=O)c2nc(Cl)c(Cl)nc2O)COC(=O)[C@@H]1Cc1ccccc1 [Compound 538]	108 to 110 °C
COc1ccccc1CNC(=O)c1ncccc1O [Compound 224]	75 to 76 °C
COc1ccnc(C(=O)NC2COC(=O)C[C@H](NC(=O)OCc3ccccc3)C(=O)OC2)c1O (stereo partly drawn) [Compound 376]	190 to 192 °C
